Values quoted from earlier work, collected in patent US20220273584A1, “Film Formulation Comprising Carriers” (Klaria Pharma Holding AB, priority 2019, published 2022).

Details: at a concentration of 1-10%

CCCCCCCC/C=C\CCCCCCCC(=O)O [Oleic acid, oleic acid]
permeability with porcine buccal epithelium: enhanced permeability
